Results on 3 compounds are retold here after publication PMC7554696 (International Journal of Molecular Sciences, 2020).

The test system of data set [1] is collagenase IV (containing MMP-2/-9). Kind of data set: Enzymatic cleavage of MMP-2/-9-cleavable octapeptide by collagenase IV (HPLC). Particulars: 37 °C, APMA-activated 1 mM collagenase IV in HBSS, HPLC read-out. The data set is classed as in vitro ADME. As for the experimental part: The MMP-2/-9-cleavable peptide was degraded by collagenase IV (containing MMP-2/-9) in a time-dependent manner. […] In order to investigate how fast the octapeptide cleaved, the aliquots were removed after 2, 8, and 12 h.
The MMP-2/-9-cleavable octapeptide Fmoc–Gly–Pro–Leu–Gly–Leu–Ala–Gly–Gly was evaluated by enzymatic digestion with the use of collagenase IV (containing MMP-2/-9). In the first step, 1 mL of HBSS was added to […] of collagenase IV (205 u/mg) and mixed to complete dissolution. Activation of collagenase IV was performed using 1 mM APMA in 0.15 M NaOH for 1.5 h at 37 °C [24, 43]. The octapeptide stock solution was added to activated 1 mM collagenase IV and incubated at 37 °C. The aliquots were removed and analyzed by HPLC, between 2 and 12 h. The HPLC Dionex Ultimate 3000 (Waltham, MA, USA) was equipped with a bioZen Intact XB-C8 column (3.6 μm, 2.1 × 150 mm; Phenomenex, Aschaffenburg, Germany). The flow rate was set at 0.5 mL/min with a mobile phase consisting of solvent A (0.1% TFA) and solvent B (100% ACN). The gradient was as follows: 0–5 min, 0% of solvent B; 5–8 min, 0–30% of solvent B. The hydrolysis product was detected by MALDI TOF/TOF 5800 mass spectrometry (AB Sciex, Darmstadt, Germany).

Data set [2] has as its system dsDNA (20 bp, 5′-CGTACGCGTACGCGTACGCG-3′ duplex). Kind of data set: UV-Vis spectrophotometric titration with dsDNA (Benesi–Hildebrand). The data set is classed as binding. The note with it: 10 mM Tris-HCl pH 7.2, 25 °C.
The test system is the same in data set [3]. Kind of data set: Steady-state fluorescence quenching titration with dsDNA. The data set is classed as binding. The note with it: 10 mM Tris-HCl pH 7.2, 25 °C.
The subject of the next data set is dsDNA. In words: Time-resolved fluorescence lifetime measurement. Format: physicochemical. Particulars: λex 420 nm, λem 594 nm, 20 °C, ligand 5 µM, constant regardless of dsDNA concentration (0–0.25 µM).
In data set [4] the test system is dsDNA (20 bp, 5′-CGTACGCGTACGCGTACGCG-3′ duplex). In words: Isothermal titration calorimetry (ITC) with dsDNA. Format: binding. The note with it: 10 mM Tris-HCl pH 7.2, 25 °C. On the technique in general: ITC needs no label: the signal is the heat of the interaction.
The subject of data set [5] is dsDNA (DNA, duplex) CGTACGCGTACGCGTACGCG/CGCGTACGCGTACGCGTACG
In words: ITC (single set of identical sites). Particulars: 10 mM Tris-HCl pH 7.2, 25 °C.

Data set [6] has the same test system. Kind of data set: UV-Vis absorbance titration (Benesi–Hildebrand, 480 nm). Particulars: 10 mM Tris-HCl pH 7.2, 25 °C; 18 µM compound, no added salt stated.
The test system is the same in data set [7]. Kind of data set: fluorescence quenching titration (Lineweaver–Burk, ex 490 nm, em 594 nm). The note with it: 10 mM Tris-HCl pH 7.2, 25 °C; 1.94 µM compound; average of two experiments.

Residues, ends and D or L forms follow the SMILES beside them. *: point of attachment. Doxorubicin(3'-N) = COc1cccc2c1C(=O)c1c(O)c3c(c(O)c1C2=O)C[C@@](O)(C(=O)CO)C[C@@H]3O[C@H]1C[C@H](N*)[C@H](O)[C@H](C)O1; Fmoc = O=C(OCC1c2ccccc2-c2ccccc21)*

Take `CC(C)C[C@H](NC(=O)CNC(=O)[C@H](CC(C)C)NC(=O)[C@@H]1CCCN1C(=O)CNC(=O)OCC1c2ccccc2-c2ccccc21)C(=O)N[C@@H](C)C(=O)NCC(=O)NCC(=O)O` [Fmoc–Gly–Pro–Leu–Gly–Leu–Ala–Gly–Gly] (Fmoc-GPLGLAGG-OH): the “MMP-2/-9 cleaved product Fmoc–Gly–Pro–Leu–Gly detected (efficiency of enzymatic digestion)” value in data set [1] (2 h incubation) is 52.54%; in data set [1] (8 h incubation) it was 69.53%; in data set [1] (12 h incubation), 82.42%. Further, in data set [1] (12 h incubation), the “substrate (octapeptide) observed after incubation with collagenase IV” value came to 17.43%.
`COc1cccc2c1C(=O)c1c(O)c3c(c(O)c1C2=O)C[C@@](O)(C(=O)CO)C[C@@H]3O[C@H]1C[C@H](N)[C@H](O)[C@H](C)O1` [DOX, Doxorubicin]: the “intrinsic association constant KA (ligand…dsDNA), Benesi–Hildebrand” value in data set [2] (UV-Vis absorbance at 480 nm, ligand 18 µM, dsDNA up to 1.90 µM) is 1.1e+06 M⁻¹. The “free energy of binding ΔG = −RTlnKA” value in data set [2] (from spectrophotometric KA) was -8.23 kcal/mol. Besides, the “bimolecular quenching rate constant kq (Stern–Volmer)” value in data set [3] (fluorescence quenching by dsDNA, λex 490 nm, emission 594 nm, ligand 1.94 µM) stood at 9.37e+15 M⁻¹ s⁻¹. Further, in data set [3] (fluorescence titration, ligands bound per dsDNA molecule), the “number of binding sites n (Scatchard, slope of log[(F0−F)/F] vs log[Q])” value is on record as “approximately 1.0”. In addition, the “fluorescence lifetime τ0” value in the data set with dsDNA was 1.057 ± 0.022 ns. Further, the “molar ratio of complex (ligand to dsDNA) from ITC” value in data set [4] (standard deviation in parentheses) is 7.29 (±0.09). Also, the logKITC is reported as 6.03 (±0.04) in data set [4] (ITC, single set of identical binding sites model, SD in parentheses) and 6.03 (±0.04) log (unit not printed) in data set [5] (0.174 mM compound into 0.002 mM dsDNA). Also, in data set [4] (ITC, SD in parentheses), the ΔHITC is recorded as −9.52 (±0.17) kcal/mol. For the same compound, the TΔSITC in data set [4] (ITC, calculated from ΔGITC = ΔHITC − TΔSITC) is -1.3 kcal/mol. Also, the ΔGITC in data set [4] (ITC, ΔGITC = −RTlnKITC, SD in parentheses) is −8.26 (±0.05) kcal/mol. Further, the values for the KA in data set [6] and in data set [7] were 1.1e+06 M⁻¹ and 1.1e+07 M⁻¹, respectively.
Turning to `COc1cccc2c1C(=O)c1c(O)c3c(c(O)c1C2=O)C[C@@](O)(C(=O)CO)C[C@@H]3O[C@H]1C[C@H](NC(=O)CNC(=O)CNC(=O)[C@H](C)NC(=O)[C@@H](N)CC(C)C)[C@H](O)[C@H](C)O1` (H-LAGG-{Doxorubicin(3'-N)}), the logKITC in data set [5] (0.470 mM compound into 0.005 mM dsDNA) is 4.24 (±0.09) log (unit not printed). Moreover, the KA is 540000 M⁻¹ in data set [6] and 5.6e+06 M⁻¹ in data set [7].
